Experiments:
[1] = test system: FeCl3-induced common carotid arterial thrombosis; assay: FeCl3-induced common carotid arterial thrombosis in rats; type: in vivo, rat
Protocol: 160 Rats were randomly divided into groups, 5 to 10 rats per group.
According to the body weight in kilograms of the rats, the first dose of a drug was dissolved in 2 mL of physiological saline for single bolus injection. The maintaining dose of drug was dissolved in 9 ml of physiological saline, and placed in a double-channel micro-injection pump, which was dripped off within 90 minutes at a dripping speed of 0.1 ml/min. The sham operation group was administered with the same volume of physiological saline.
The rats were fasted with free access to water overnight before the experiment.
After administration at a load dosage maintenance for 30 minutes, a filter paper with a 3 mm diameter and immersed with 35% FeCl3 solution was applied below the common carotid artery, below which a small piece of a plastic film (2.5 cm×2.0 cm) was placed to protect surrounding tissues. The body temperature was detected with a temperature probe in the distal end of the artery, and the time required from the beginning of stimulation to the point when the temperature decreased by 2.5 degrees was examined as the vascular occlusion time.
The time from the point when FeCl3 was placed to the point when the temperature of the artery indicated a decrease of 2.5° C. was the vascular occlusion time, which reflected the state of thrombus formation.

[2] = test system: FeCl3-induced femoral artery thrombosis; assay: FeCl3-induced femoral artery thrombosis in rabbits, single intravenous administration; type: in vivo, rabbit; conditions: single iv 200 U (U/kg)
Protocol: (§1) 1. Grouping and administration: 48 Rabbits were randomly divided into 6 groups, 8 rabbits per group. 1) Sham operation group (NS): Intravenous injection of the same volume of physiological saline; 2) positive control bivalirudin group (6 mg/kg); 3) positive control enoxaparin group (200 U/kg); 4) Low dose group of polypeptide 2 (3.0 mg/kg); 5) Medium dose group of polypeptide 2 (6.0 mg/kg); 6) High dose group of polypeptide 2 (12.0 mg/kg). Polypeptide 2 was administered by single intravenous administration. According to the body weight in kilograms of the rabbits, the sample was dissolved in 2 mL of physiological saline for single bolus injection. The sham operation group was administered with the same volume of physiological saline.
2.1 Surgery preparation of rabbits: Rabbit were sent to the laboratory for accommodation for one day, and then screened at first. Blood samples were taken from arteries within ears, which were subjected to blood routine analysis and APTT examinations, and the rabbits with a normal blood hemogram and APTT between 16 and 28 seconds were selected for experiments. The rabbits to be tested were fasted with free access to water in the night before the experiment. The rabbits were anesthetized with intravenous injection of 3% sodium pentobarbital solution at 1 ml/kg, fixed in the supine position, and then, the common carotid artery at one side, external jugular vein, femoral artery at one side, femoral vein, and forelimb vein at one side were isolated. The forelimb vein was subjected to intubation for administration; the left femoral vein was subjected to intubation for blood collection to determine the platelet aggregation rate: the femoral artery was used for the establishment of an arterial thrombosis model; the common carotid artery and external jugular vein were used for the establishment of an arterial and venous bypass thrombosis model.
2.3 Arterial thrombosis (AT) model: A small piece of filter paper (1 cm×1.5 cm) absorbed with 50% FeCl3 solution was applied onto the right femoral artery while administration, below which a small piece of a plastic film (2.5 cm×2.0 cm) was placed to protect surrounding tissues. After 10 minutes, the filter paper was removed, and then, the blood vessels and local tissues were rinsed with warm physiological saline, and the covered blood vessels were cut off. The thrombus which attached to the blood vessel walls was peeled off to be weighed on a tin foil for its wet weight, and then kept overnight at room temperature and weighed for its dry weight.
The femoral arteries in the […] and both sides in the rabbits were isolated and stabilized for 10 min before the administration was started. An AT model was established by covering the femoral artery with 50% FeCl3 filter paper while administration, and the filter paper was removed after covering for 15 minutes. An AVST model was established and it was taken out after […]. Observation was continued for 120 min after administration until the experiment was completed.
3.4 Thrombus weight: After the experiment was completed, the segment of the blood vessels in which there had been thrombus formation was cut off, weighed for the wet weight, and then kept overnight at room temperature and weighed for the dry weight. The thrombosis inhibitory rate was calculated with a calculation equation as follows: […]

[3] = test system: platelet aggregation; assay: Platelet aggregation in rabbits, single intravenous administration; type: in vivo, rabbit; conditions: single iv 200 (U/kg)
Protocol: as §1
3.1 Platelet aggregation rate: 2.7 ml of blood was taken from the femoral vein, rapidly injected into a centrifuge tube containing 0.3 ml of 3.8% sodium citrate solution, and fully mixed well. The resulted blood samples were centrifuged at 810 rpm (100 g) for 8 min to obtain PRP, which was taken out and centrifuged at 3500 rpm (1863 g) for 8 min to obtain PPP, which was used to determine platelet aggregation.
Blood samples were taken at a point before administration (0 min), and at points of administration for 5 min and 15 min, respectively, to determine the platelet aggregation rate, which was used to calculate the inhibitory rate of platelet aggregation with a calculation equation as follows: […]

[4] = test system: blood coagulation function; assay: PT in rabbits, single intravenous administration; type: in vivo, rabbit; conditions: single iv 200 (U/kg)
Protocol: as §1
(§2) 3.2 Determination of blood coagulation function: Blood samples were taken and the blood function (PT, TT, APTT) was determined at 0 min before administration, at points of 5 min and 15 min after administration, using a platelet-aggregation coagulation factor analyzer. Blood samples were centrifuged at 3510 rpm for 8 min to obtain platelet poor plasma (PPP). Reagent reconstruction and preservation were performed according to the operation requirements of the kit. Immediately after each blood sample was placed into a test cup and then added with PT. TT and APTT reagents, the test was started. After the test was completed, results were recorded.

[5] = test system: blood coagulation function; assay: TT in rabbits, single intravenous administration; type: in vivo, rabbit; conditions: single iv 200 (U/kg)
Protocol: as §1, §2

[6] = test system: whole blood coagulation; assay: ACT in rabbits, single intravenous administration; type: in vivo, rabbit; conditions: single iv 200 (U/kg)
Protocol: as §1
3.3 Determination of ACT: At 0 min before administration and at points of administration for 5 min and 15 min, the whole blood was taken, to which kaolin was added, and placed in a water bath at 37° C. to record the whole blood coagulation time.

## Enoxaparin
[1]; iv 30 + 45 u (U/kg+U/kg/h)
  Common carotid arterial thrombosis Fold of prolongation: 1.93 ± 0.52
  Common carotid arterial thrombosis OT: 48.17 ± 13.12 min
[1]; iv 30 + 120 u (U/kg+U/kg/h)
  Common carotid arterial thrombosis Fold of prolongation: 1.66 ± 0.27
  Common carotid arterial thrombosis OT: 41.4 ± 6.68 min
[1]; iv 60 + 60 u (U/kg+U/kg/h)
  Common carotid arterial thrombosis Fold of prolongation: 2.23 ± 0.29
  Common carotid arterial thrombosis OT: 55.75 ± 7.23 min
[1]; iv 60 + 240 u (U/kg+U/kg/h)
  Common carotid arterial thrombosis Fold of prolongation: 1.99 ± 0.20
  Common carotid arterial thrombosis OT: 49.75 ± 5.04 min
[1]; iv 90 + 120 u (U/kg+U/kg/h)
  Common carotid arterial thrombosis Fold of prolongation: 1.95 ± 0.46
  Common carotid arterial thrombosis OT: 48.83 ± 11.58 min
[2]
  Thrombus dry weight: 1.5 ± 0.4 mg
  Thrombus inhibitory rate: 48.26%
[3]; Administration for 5 min
  inhibitory rate of platelet aggregation: 9.5 ± 6.2%
[3]; Administration for 15 min
  inhibitory rate of platelet aggregation: 16.1 ± 6.5%
[4]; Administration 5 min
  PT fold of prolongation: 1.2 ± 0.1
[4]; Administration 15 min
  PT fold of prolongation: 1.2 ± 0.1
[4]; Administration for 5 min
  PT: 6.7 ± 1.1 S
[4]; Administration for 15 min
  PT: 6.7 ± 0.8 S
[4]; Before administration
  PT: 5.8 ± 0.2 S
[5]; Administration for 5 min
  TT: >180 s
[5]; Administration for 15 min
  TT: >180 s
[5]; Before administration
  TT: 20.7 ± 4.2 S
[6]; Administration for 5 min
  ACT: 915.0 ± 37.7 s
[6]; Administration for 15 min
  ACT: 610.7 ± 25.7 s
[6]; After administration 5 min
  ACT fold of prolongation: 3.4 ± 1.1
[6]; After administration 15 min
  ACT fold of prolongation: 2.2 ± 0.7
[6]; Before administration
  ACT: 285.0 ± 25.6 s

From patent US11643439B2, “Multi-target compound with anticoagulation and antiplatelet activity, preparation method therefor, and use thereof” (SHAANXI MICOT TECHNOLOGY LIMITED COMPANY, priority 2015, dated 2023)
